# Data as given in ChEMBL document CHEMBL1128117, “Dibenzobicyclo[2.2.2.]octane angiotensin II receptor antagonists” (Bioorg Med Chem Lett, 1995).
# Molecular target: T1, Angiotensin II receptor (Homo sapiens, UniProt P30556+P50052)
# T1 sequence (P30556 whole entry): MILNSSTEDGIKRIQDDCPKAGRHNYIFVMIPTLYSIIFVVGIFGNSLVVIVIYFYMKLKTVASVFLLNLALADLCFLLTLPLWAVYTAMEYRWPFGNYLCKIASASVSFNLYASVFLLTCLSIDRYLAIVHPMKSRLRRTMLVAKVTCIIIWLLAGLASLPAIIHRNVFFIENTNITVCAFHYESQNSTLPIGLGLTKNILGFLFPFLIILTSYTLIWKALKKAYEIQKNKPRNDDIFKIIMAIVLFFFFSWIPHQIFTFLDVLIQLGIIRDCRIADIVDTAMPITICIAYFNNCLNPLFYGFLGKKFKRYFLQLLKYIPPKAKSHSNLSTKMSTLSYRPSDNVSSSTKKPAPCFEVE
# T1 sequence (P50052 whole entry): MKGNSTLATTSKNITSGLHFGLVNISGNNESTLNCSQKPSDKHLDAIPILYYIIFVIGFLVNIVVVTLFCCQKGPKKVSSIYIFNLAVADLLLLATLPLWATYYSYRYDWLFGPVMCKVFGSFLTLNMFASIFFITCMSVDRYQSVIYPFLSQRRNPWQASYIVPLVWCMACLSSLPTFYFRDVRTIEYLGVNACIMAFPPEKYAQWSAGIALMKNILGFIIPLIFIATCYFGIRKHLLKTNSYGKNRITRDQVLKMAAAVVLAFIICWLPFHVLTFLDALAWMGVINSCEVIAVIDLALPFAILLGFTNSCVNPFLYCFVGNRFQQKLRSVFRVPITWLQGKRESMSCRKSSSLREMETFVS
# Assay: Inhibitory activity against Angiotensin II receptor
# Format: protein assay
row,SMILES,IC50
1,CCCCc1nc(Sc2ccccc2)c(C=O)n1Cc1ccc2c(c1)C1c3ccccc3C2C(c2nn[nH]n2)C1c1nn[nH]n1 (stereo not drawn),460 nM
2,CCCCc1nc(Cl)c(C=O)n1Cc1ccc2c(c1)C(O)(C(=O)O)c1ccccc1-2 (stereo not drawn),> 10000 nM
3,CCCCc1nc(Cl)c(C=O)n1Cc1ccc2c(c1)C(C(=O)O)c1ccccc1-2 (stereo not drawn),3600 nM
4,CCCCc1nc(Cl)c(C=O)n1Cc1ccc2c(c1)C1c3ccccc3C2C(c2nn[nH]n2)C1c1nn[nH]n1 (stereo not drawn),90 nM
5,CCCCc1nc(Cl)c(C=O)n1Cc1ccc2c(c1)C(Cc1nn[nH]n1)c1ccccc1-2 (stereo not drawn),5000 nM
6,"CCCCc1nc(Cl)c(C=O)n1Cc1ccc2c(c1)C1c3ccccc3C2C(C(=O)O)C1C(=O)O (single isomer, unassigned)",320 nM
7,CCCCc1nc(Cl)c(C=O)n1Cc1ccc2c(c1)C1c3ccccc3C2C(C(=O)O)C1C(=O)O (stereo in doubt),1100 nM
8,CCCCc1nc(Cl)c(C=O)n1Cc1ccc2c(c1)C1c3ccccc3C2C(C(=O)O)C1C(=O)O (stereo in doubt; 3),1100 nM
9,CCCCc1nc(Cl)c(C=O)n1Cc1ccc2c(c1)C1c3ccccc3C2C(C(=O)O)C1C(=O)O (stereo in doubt; 5),220 nM

# Tested on: Rattus norvegicus
# Assay: Dose required to lower the blood pressure by 30 mm Hg on intravenous administration in the renal hypertensive rat was determined
# Format: functional
row,SMILES,ED30
1,CCCCc1nc(Cl)c(CO)n1Cc1ccc(-c2ccccc2-c2nnn[nH]2)cc1 [LOSARTAN],0.8 mg/kg

# Molecular target: T1, Angiotensin II receptor
# Assay: Inhibitory activity against Angiotensin II receptor was determined
# Format: protein assay
row,IC50,SMILES
1,> 10000 nM,CCCCc1nc(Cl)c(COC)n1Cc1ccc(N2C(=O)C3(C)CC(C)(C(=O)O)CC(C)(C3)C2=O)cc1 (stereo not drawn)

# Tested on: Rattus norvegicus
# Assay: Dose required to lower the blood pressure by 30 mm Hg on intravenous administration in the renal hypertensive rat; orally inactive
# Format: functional
row,SMILES,ED30
1,CCCCc1nc(Sc2ccccc2)c(C=O)n1Cc1ccc2c(c1)C1c3ccccc3C2C(c2nn[nH]n2)C1c1nn[nH]n1 (stereo not drawn),0.2 mg/kg
2,CCCCc1nc(Cl)c(C=O)n1Cc1ccc2c(c1)C1c3ccccc3C2C(c2nn[nH]n2)C1c1nn[nH]n1 (stereo not drawn),0.115 mg/kg
